Read-outs that look alike come from different tables or passages of the source.
System: hiPSC-CMs (iCell-Cardiomyocytes^2)
Outline: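 Spontaneous field potentials and impedance recorded by MEA at 37°C, 5% CO2 in hiPSC-CM monolayers (50 K/well, fibronectin-coated), 5-min baseline before compound; final DMSO 0.1%. Values are percent change from baseline, mean ± SD, compared with DMSO by Wilcoxon-Mann Whitney, interpreted against DMSO tolerance intervals.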

Structure (SMILES): C#Cc1cccc(Nc2ncnc3cc(OCCOC)c(OCCOC)cc23)c1 [Erlotinib]
- BR (beat rate) % change from baseline (0.3 µM, 2h): 3±3%
- Beating below threshold, number of observations/total well numbers (0.3 µM, 2h): 0/5
- Cessation of beating, number of observations/total well numbers (0.3 µM, 2h): 0/5
- EAD, number of observations/total well numbers (0.3 µM, 2h): 0/5
- FPD (field-potential duration), % change from baseline (0.3 µM, 2h): 0.6±0.9%
- FPDc (field-potential duration corrected by beat-rate), % change from baseline (0.3 µM, 2h): 1.6±1.1%
- Flat T-wave-like, number of observations/total well numbers (0.3 µM, 2h): 0/5
- BR (beat rate) % change from baseline (0.3 µM, 24h): -1±5%
- Beating below threshold, number of observations/total well numbers (0.3 µM, 24h): 0/5
- Cessation of beating, number of observations/total well numbers (0.3 µM, 24h): 0/5
- EAD, number of observations/total well numbers (0.3 µM, 24h): 0/5
- FPD (field-potential duration), % change from baseline (0.3 µM, 24h): 7.8±3.3%
- FPDc (field-potential duration corrected by beat-rate), % change from baseline (0.3 µM, 24h): 7.4±1.9%
- Flat T-wave-like, number of observations/total well numbers (0.3 µM, 24h): 0/5
- BR (beat rate) % change from baseline (0.3 µM, 48h): -12±1%
- Beating below threshold, number of observations/total well numbers (0.3 µM, 48h): 0/5
- Cessation of beating, number of observations/total well numbers (0.3 µM, 48h): 0/5
- EAD, number of observations/total well numbers (0.3 µM, 48h): 0/5
- FPD (field-potential duration), % change from baseline (0.3 µM, 48h): 16.2±1.3%
- FPDc (field-potential duration corrected by beat-rate), % change from baseline (0.3 µM, 48h): 11.5±0.7%
- Flat T-wave-like, number of observations/total well numbers (0.3 µM, 48h): 0/5
- BR (beat rate) % change from baseline (0.3 µM, 72h): -8±2%
- Beating below threshold, number of observations/total well numbers (0.3 µM, 72h): 0/5
- Cessation of beating, number of observations/total well numbers (0.3 µM, 72h): 0/5
- EAD, number of observations/total well numbers (0.3 µM, 72h): 0/5
- FPD (field-potential duration), % change from baseline (0.3 µM, 72h): 14.6±3.1%
- FPDc (field-potential duration corrected by beat-rate), % change from baseline (0.3 µM, 72h): 11.4±2.8%
- Flat T-wave-like, number of observations/total well numbers (0.3 µM, 72h): 0/5
- BR (beat rate) % change from baseline (0.3 µM, 96h): -14±1%
- Beating below threshold, number of observations/total well numbers (0.3 µM, 96h): 0/5
- Cessation of beating, number of observations/total well numbers (0.3 µM, 96h): 0/5
- EAD, number of observations/total well numbers (0.3 µM, 96h): 0/5
- FPD (field-potential duration), % change from baseline (0.3 µM, 96h): 21.2±1.9%
- FPDc (field-potential duration corrected by beat-rate), % change from baseline (0.3 µM, 96h): 15.1±1.6%
- Flat T-wave-like, number of observations/total well numbers (0.3 µM, 96h): 0/5
- BR (beat rate) % change from baseline (1 µM, 2h): 1±1%
- Beating below threshold, number of observations/total well numbers (1 µM, 2h): 0/5
- Cessation of beating, number of observations/total well numbers (1 µM, 2h): 0/5
- EAD, number of observations/total well numbers (1 µM, 2h): 0/5
- FPD (field-potential duration), % change from baseline (1 µM, 2h): 3.4±1%
- FPDc (field-potential duration corrected by beat-rate), % change from baseline (1 µM, 2h): 3.8±0.8%
- Flat T-wave-like, number of observations/total well numbers (1 µM, 2h): 0/5
- BR (beat rate) % change from baseline (1 µM, 24h): 0±5%
- Beating below threshold, number of observations/total well numbers (1 µM, 24h): 0/5
- Cessation of beating, number of observations/total well numbers (1 µM, 24h): 0/5
- EAD, number of observations/total well numbers (1 µM, 24h): 0/5
- FPD (field-potential duration), % change from baseline (1 µM, 24h): 5.5±5.8%
- FPDc (field-potential duration corrected by beat-rate), % change from baseline (1 µM, 24h): 5.6±4%
- Flat T-wave-like, number of observations/total well numbers (1 µM, 24h): 0/5
- BR (beat rate) % change from baseline (1 µM, 48h): -13±3%
- Beating below threshold, number of observations/total well numbers (1 µM, 48h): 0/5
- Cessation of beating, number of observations/total well numbers (1 µM, 48h): 0/5
- EAD, number of observations/total well numbers (1 µM, 48h): 0/5
- FPD (field-potential duration), % change from baseline (1 µM, 48h): 16.6±3.6%
- FPDc (field-potential duration corrected by beat-rate), % change from baseline (1 µM, 48h): 11.3±2.2%
- Flat T-wave-like, number of observations/total well numbers (1 µM, 48h): 0/5
- BR (beat rate) % change from baseline (1 µM, 72h): -9±2%
- Beating below threshold, number of observations/total well numbers (1 µM, 72h): 0/5
- Cessation of beating, number of observations/total well numbers (1 µM, 72h): 0/5
- EAD, number of observations/total well numbers (1 µM, 72h): 0/5
- FPD (field-potential duration), % change from baseline (1 µM, 72h): 14.7±3.9%
- FPDc (field-potential duration corrected by beat-rate), % change from baseline (1 µM, 72h): 11±3.3%
- Flat T-wave-like, number of observations/total well numbers (1 µM, 72h): 0/5
- BR (beat rate) % change from baseline (1 µM, 96h): -16±2%
- Beating below threshold, number of observations/total well numbers (1 µM, 96h): 0/5
- Cessation of beating, number of observations/total well numbers (1 µM, 96h): 0/5
- EAD, number of observations/total well numbers (1 µM, 96h): 0/5
- FPD (field-potential duration), % change from baseline (1 µM, 96h): 22.4±3.5%
- FPDc (field-potential duration corrected by beat-rate), % change from baseline (1 µM, 96h): 15.1±2.5%
- Flat T-wave-like, number of observations/total well numbers (1 µM, 96h): 0/5
- BR (beat rate) % change from baseline (3 µM, 72h): -10±2%
- Beating below threshold, number of observations/total well numbers (3 µM, 72h): 0/5
- Cessation of beating, number of observations/total well numbers (3 µM, 72h): 0/5
- EAD, number of observations/total well numbers (3 µM, 72h): 0/5
- FPD (field-potential duration), % change from baseline (3 µM, 72h): 10.9±3.3%
- FPDc (field-potential duration corrected by beat-rate), % change from baseline (3 µM, 72h): 7.1±2.8%
- Flat T-wave-like, number of observations/total well numbers (3 µM, 72h): 0/5
- BR (beat rate) % change from baseline (3 µM, 96h): -18±2%
- Beating below threshold, number of observations/total well numbers (3 µM, 96h): 0/5
- Cessation of beating, number of observations/total well numbers (3 µM, 96h): 0/5
- EAD, number of observations/total well numbers (3 µM, 96h): 0/5
- FPD (field-potential duration), % change from baseline (3 µM, 96h): 18.9±1.9%
- FPDc (field-potential duration corrected by beat-rate), % change from baseline (3 µM, 96h): 11.7±1.1%
- Flat T-wave-like, number of observations/total well numbers (3 µM, 96h): 0/5
- BR (beat rate) % change from baseline (3 µM, 2h): 1±2%
- Beating below threshold, number of observations/total well numbers (3 µM, 2h): 0/5
- Cessation of beating, number of observations/total well numbers (3 µM, 2h): 0/5
- EAD, number of observations/total well numbers (3 µM, 2h): 0/5
- FPD (field-potential duration), % change from baseline (3 µM, 2h): 2±3%
- FPDc (field-potential duration corrected by beat-rate), % change from baseline (3 µM, 2h): 2.4±2.4%
- Flat T-wave-like, number of observations/total well numbers (3 µM, 2h): 0/5
- BR (beat rate) % change from baseline (3 µM, 24h): 2±3%
- Beating below threshold, number of observations/total well numbers (3 µM, 24h): 0/5
- Cessation of beating, number of observations/total well numbers (3 µM, 24h): 0/5
- EAD, number of observations/total well numbers (3 µM, 24h): 0/5
- FPD (field-potential duration), % change from baseline (3 µM, 24h): 0.1±4%
- FPDc (field-potential duration corrected by beat-rate), % change from baseline (3 µM, 24h): 0.7±3%
- Flat T-wave-like, number of observations/total well numbers (3 µM, 24h): 0/5
- BR (beat rate) % change from baseline (3 µM, 48h): -13±3%
- Beating below threshold, number of observations/total well numbers (3 µM, 48h): 0/5
- Cessation of beating, number of observations/total well numbers (3 µM, 48h): 0/5
- EAD, number of observations/total well numbers (3 µM, 48h): 0/5
- FPD (field-potential duration), % change from baseline (3 µM, 48h): 11±2.4%
- FPDc (field-potential duration corrected by beat-rate), % change from baseline (3 µM, 48h): 5.9±1.1%
- Flat T-wave-like, number of observations/total well numbers (3 µM, 48h): 0/5
- wells with flat T-wave (10 µM (highest concentration)): One well on 5
- BR (beat rate) % change from baseline (10 µM, 2h): 1±1%
- Beating below threshold, number of observations/total well numbers (10 µM, 2h): 0/5
- Cessation of beating, number of observations/total well numbers (10 µM, 2h): 0/5
- EAD, number of observations/total well numbers (10 µM, 2h): 0/5
- FPD (field-potential duration), % change from baseline (10 µM, 2h): 3.5±0.9%
- FPDc (field-potential duration corrected by beat-rate), % change from baseline (10 µM, 2h): 3.9±1.1%
- Flat T-wave-like, number of observations/total well numbers (10 µM, 2h): 0/5
- BR (beat rate) % change from baseline (10 µM, 24h): -1±7%
- Beating below threshold, number of observations/total well numbers (10 µM, 24h): 0/5
- Cessation of beating, number of observations/total well numbers (10 µM, 24h): 0/5
- EAD, number of observations/total well numbers (10 µM, 24h): 0/5
- FPD (field-potential duration), % change from baseline (10 µM, 24h): 7.2±5.8%
- FPDc (field-potential duration corrected by beat-rate), % change from baseline (10 µM, 24h): 6.3±4.1%
- Flat T-wave-like, number of observations/total well numbers (10 µM, 24h): 1/5
- BR (beat rate) % change from baseline (10 µM, 48h): -15±4%
- Beating below threshold, number of observations/total well numbers (10 µM, 48h): 0/5
- Cessation of beating, number of observations/total well numbers (10 µM, 48h): 0/5
- EAD, number of observations/total well numbers (10 µM, 48h): 0/5
- FPD (field-potential duration), % change from baseline (10 µM, 48h): 15.4±2.7%
- FPDc (field-potential duration corrected by beat-rate), % change from baseline (10 µM, 48h): 8.7±1.6%
- Flat T-wave-like, number of observations/total well numbers (10 µM, 48h): 1/5
- BR (beat rate) % change from baseline (10 µM, 72h): -13±4%
- Beating below threshold, number of observations/total well numbers (10 µM, 72h): 0/5
- Cessation of beating, number of observations/total well numbers (10 µM, 72h): 0/5
- EAD, number of observations/total well numbers (10 µM, 72h): 0/5
- FPD (field-potential duration), % change from baseline (10 µM, 72h): 16.4±6.7%
- FPDc (field-potential duration corrected by beat-rate), % change from baseline (10 µM, 72h): 10.6±6%
- Flat T-wave-like, number of observations/total well numbers (10 µM, 72h): 1/5
- BR (beat rate) % change from baseline (10 µM, 96h): -19±2%
- Beating below threshold, number of observations/total well numbers (10 µM, 96h): 0/5
- Cessation of beating, number of observations/total well numbers (10 µM, 96h): 0/5
- EAD, number of observations/total well numbers (10 µM, 96h): 0/5
- FPD (field-potential duration), % change from baseline (10 µM, 96h): 25±8.1%
- FPDc (field-potential duration corrected by beat-rate), % change from baseline (10 µM, 96h): 16±6.6%
- Flat T-wave-like, number of observations/total well numbers (10 µM, 96h): 1/5
- arrhythmic-like events (all concentrations tested): no arrhythmic-like events were observed
- changes in BR (all concentrations tested): nor significant changes in BR
- prolongation of FPD / FPDc (all concentrations tested): did not observe any physiologically relevant prolongation in FPD and FPDc
- effect on hiPSC-CMs electrophysiology or cytotoxicity (up to ∼ three times the estimated fCmax): did not detect any significant effect on hiPSC-CMs electrophysiology or cytotoxicity

Reference: paper PMC10364322, “Evaluation of chronic drug-induced electrophysiological and cytotoxic effects using human-induced pluripotent stem cell-derived cardiomyocytes (hiPSC-CMs)” (Frontiers in Pharmacology, 2023)
